Where a name gives a salt, the structure may show the parent alone. Read-outs that look alike come from different tables or passages of the source.
Columns and labels:
human CRFR1 = target: T1, human CRFR1 (Homo sapiens, UniProt P34998); experiment: CRFR binding experiment (125I-sauvagine, SPA); conditions: membrane fraction of cell expressing human CRFR1, 40 pM 125I-sauvagine, room temperature, two hours; read-out: CRF1 receptor binding ability IC50
T1 construct: The full length gene of CRFR^1 was obtained by a PCT method using human brain (QuickClone™ Clontech) as cDNA library; expressed in transfected cells; host or cells: Hek 283 cell (so in the source)
T1 sequence (P34998 24-415): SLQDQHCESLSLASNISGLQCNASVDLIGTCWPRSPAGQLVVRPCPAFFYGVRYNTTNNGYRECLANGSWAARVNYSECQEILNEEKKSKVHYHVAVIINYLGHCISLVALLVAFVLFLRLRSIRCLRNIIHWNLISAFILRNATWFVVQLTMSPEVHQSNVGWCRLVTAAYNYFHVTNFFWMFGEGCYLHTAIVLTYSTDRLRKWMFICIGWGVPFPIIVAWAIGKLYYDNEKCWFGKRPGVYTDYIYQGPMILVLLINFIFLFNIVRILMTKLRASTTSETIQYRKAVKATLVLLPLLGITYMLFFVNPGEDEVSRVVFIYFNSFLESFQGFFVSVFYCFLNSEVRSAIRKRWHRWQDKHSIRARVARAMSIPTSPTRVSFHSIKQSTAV
Procedure: • (1) Preparation of CRFR expressing cell: As an experiment material for the CRFR binding experiment, a membrane fraction of a cell which expressed highly human CRFR1. CRFR expressing cell was prepared as follows. The full length gene of CRFR^1 was obtained by a PCT method using human brain (QuickClone™ Clontech) as cDNA library. The resulting DNA fragment was inserted into a cloning vector to confirm the base sequence. A cDNA having the correct base sequence was ligated to an expression vector (pcDNA3.1™, Invitrogen). A gene was inserted into […] cell and grown in a cell culturing solution containing G418 (1 mg/ml) to obtain a resistance cell, into which a CRFR^1 expression vector was cloned by a limitation diluting method. A clone having the high binding ability of membrane and sauvagine per unit protein was finally selected from cloned cells by a binding experiment shown by the method shown below, which was used for an experiment. • (2) Preparation of a membrane fraction: G418 resistant cells into which a gene for CRFR^1 was introduced were collected, and cell rupture was performed by an ultrasound generator with a sonicate buffer (D-PBS-10 mM MgCl2, 2 mM EGTA). A suspension after ultrasound rupture was centrifuged (46,000×g, 10 minutes), the sediment thereof was further resuspended with a sonicate buffer, and the same procedures were related. Finally, the sediment was suspended in a binding buffer (D-PBS-10 mM MgCl2, 2 mM EGTA, 1.5% BSA, 0.15 mM bacitracin, 1× protease inhibitor cocktail (COMPLETE™, Boehringer), to adjust the protein concentration at 1.6 mg/ml, which was used as a membrane fraction. • (3) Binding experiment: Binding experiment with sauvagine was performed using a 96-well plate and SP™ (Amersham pharmacia) An experiment was according to the specification of SPA beads. […] of a membrane fraction protein, 0.5 mg of beads and 40 pM ^125I-sauvaging (Amersham pharmacia) were allowed to stand at room temperature for two hours in the presence a test compound, centrifuged (1,000×g, 5 minutes), and then the radioactivity of each well was measured with TopCount™ (Packard). • (4) Calculation of the binding ability: The radioactivity as the non-specific binding when 1,000-fold excessive amount of non-radioactive sauvagine was added was substacted from each value, the radioactivity where no test material is added is regarded as 100% (control), and each value is shown by % (% of control). The concentration showing 50% in % (% of control) was obtained from a graph where the concentration test material is plotted on an abscissa axis and % (% of control) is plotted on a coordinate axis and IC50 value was calculated (Table 1)

AtT-20 cell = experiment: Experiment for measuring adenylate cyclase activity using AtT-20 cell (CRF-induced cAMP); assay type: cell-based, mouse; conditions: 1 mM IBMX, intracellular cAMP by ELISA, read-out: adenylate cyclase ability IC50
From the text: Experiment for Measuring Adenyrate Cyclase the Activity Using AtT-20 Cell
• (1) Test procedures: AtT-20 cell is a cell strain derived from mouse pytuitari gland tumor, it is known that the intracellular adenyrate cyclase system is activated in response to corticotrophin release hormone (CRF), to produce cyclic AMP (cAMP), releasing adrenocortical hormone (ACTH) (Biochem. Piophys. Res. Com. 106. 1364-1371, 1982). In this experiment, the cell 1×10^5) suspended in D-MEM medium (0.1% FPS), seeded on a 96-well plate, a phosphodiesterase inhibitor (IBMX, Calbiochem) was added to the final concentration of 1 mM, which was cultured at 37° C. for 30 minutes. A diluted test compound solution and CRF (30 nM) were added, which was further cultured at 37° C. for 10 minutes, cells were collected by centrifugation (500×g, 5 minutes), cells were lysed with a lysis buffer (Amersham Pharmacia), and an amount of intracellular cAMP produced was quantitated using the ELISA method. For ELISA, cAMP EIA system (BIOTRAK™ Amersham Pharmacia) was used. • (2) Calculation of adenyrate cyclase activity inhibitory ability: Treatment of the resulting data was carried out as follows. An amount of cAMP produced by a cell to which 30 nM CRF was added is regarded as 100% (control) and a value of each sample is expressed as % (% of control). The concentration showing 50% in % (% of control) was obtained from a graph where the concentration of a test material is plotted on an abscissa axis and % (% of control) is plotted on a coordinate and IC50 value was calculated (Table 2).

Compound	IC50 (human CRFR1)	IC50 (AtT-20 cell; Mus musculus, AtT20, 30 nM CRF)	IC50 (AtT-20 cell; 30 nM CRF)
CCC(CC)N1CCc2c(C)nc3c(-c4c(C)cc(C)cc4C)c(C)nn3c21 [Example 1, 8-(1-Ethylpropyl)-3-mesityl-2,5-dimethyl-7,8-dihydro-6H-pyrazolo[1,5-a]pyrrolo[3,2-e]pyrimidine hydrochloride]	100 nM	900 nM	–
CCCCN1CCc2c(C)nc3c(-c4c(C)cc(C)cc4C)c(C)nn3c21 [Example 2, 8-Butyl-3-mesityl-2,5-dimethyl-7,8-dihydro-pyrazolo[1,5-a]pyrrolo[3,2-e]pyrimidine hydrochloride]	500 nM	–	–
CCCC(CCC)N1CCc2c(C)nc3c(-c4cnc(N(C)C)cc4C)c(C)nn3c21 [Example 3, N-5-[2,5-Dimethyl-8-(1-propylbutyl)-7,8-dihydro-6H-pyrazolo[1,5-a]pyrrolo[3,2-e]pyrimidin-3-yl]-4-methyl-2-pyridyl-N,N-dimethylamine hydrochloride]	600 nM	–	–
CCCC(CCC)N1CCc2c(C)nc3c(-c4c(C)cc(C)cc4C)c(C)nn3c21 [Example 6, 3-Mesityl-2,5-dimethyl-8-(1-propylbutyl)-7,8-dihydro-6H-pyrazolo[1,5-a]pyrrolo[3,2]-pyrimidine hydrochloride]	1000 nM	–	–
CCC(CC)N1c2c(c(C)nc3c(-c4c(C)cc(C)cc4C)c(C)nn23)CC1C (stereo not shown) [Example 13, 8-(1-Ethylpropyl)-mesityl-2,5,7-trimethyl-7,8-dihydro-6H-pyrazolo[1,5-a]pyrrolo[3,2-e]pyrimidine]	2500 nM	–	1500 nM

More lines, main results first:

IC50 (human CRFR1)	IC50 (AtT-20 cell; Mus musculus, AtT20, 30 nM CRF)	Compound	IC50 (AtT-20 cell; 30 nM CRF)
1500 nM	–	CCC(CC)N1CCCc2c(C)nc3c(-c4c(C)cc(C)cc4C)c(C)nn3c21 [Example 12, 9-(1-Ethylpropyl)-3-mesityl-2,5-dimethyl-6,7,8,9-tetrahydropyrazolo[1,5-a]pyrido[3,2-e]pyrimidine]	–
1500 nM	–	CCc1nn2c3c(c(C)nc2c1-c1c(C)cc(C)cc1C)CCN3C(CC)CC [Example 23, 2-Ethyl-8-(1-ethylpropyl)-3-mesityl-5-methyl-7,8-dihydro-6H-pyrazolo[1,5-a]pyrrolo[3,2-e]pyrimidine]	–
1000 nM	–	CCC(CC)N1CCc2c(C)nc3c(-c4ccc(Cl)cc4Cl)c(C)nn3c21 [Example 33, 3-(2,4-Dichlorophenyl)-8-(1 ethylpropyl)-2,5-dimethyl-7,8-dihydro-6H-pyrazolo[1,5-a]pyrrolo[3,2-e]pyrimidine hydrochloride]	–
3000 nM	–	Cc1cc(C)c(-c2c(C)nn3c4c(c(C)nc23)CCN4CC2CC2)c(C)c1 [Example 38, 8-(Cyclopropylmethyl)-3-mesityl-2,5-dimethyl-7,8-dihydro-6H-pyrazolo[1,5-a]pyrrolo[3,2-e]pyrimidine hydrochloride]	–
400 nM	–	COCCN1c2c(c(C)nc3c(-c4c(C)cc(C)cc4C)c(C)nn23)CC1C (stereo not shown) [Example 44, 3-Mesityl-8-(2-methoxyethyl)-2,5,7-trimethyl-7,5-dihydro-6H-pyrazolo[1,5-a]pyrrolo[3,2-e]pyrimidine hydrochloride]	–
1500 nM	–	Cc1cc(C)c(-c2c(C)nn3c4c(c(C)nc23)CCN4C2CCCCCC2)c(C)c1 [Example 45, 8-Cycloheptyl-3-mesityl-2,5-dimethyl-7,8-dihydro)-6H-pyrazolo[1,5-a]pyrrolo[3,2-e]pyrimidine hydrochloride]	–
200 nM	2000 nM	CCC(CC)n1ccc2c(C)nc3c(-c4c(C)cc(C)cc4C)c(C)nn3c21 [Example 67, 8-(1-Ethylpropyl)-3-mesityl-2,5-dimethyl-8H-pyrazolo[1,5-a]pyrrolo[3,2-e]pyrimidine]	–
1400 nM	–	CCCC(=O)N1CCc2c(C)nc3c(-c4c(C)cc(C)cc4C)c(C)nn3c21 [Example 74, 1-(3-Mesityl-2,5-dimethyl-7,8-dihydro-6H-pyrazolo[1,5-a]pyrrolo[3,2-e]pyrimidin-8-yl)-1-butanone]	–

— patent publication US6927221B2, “Tricyclic fused heterocyclic compound, process for preparing it and medicament comprising it” (Eisai Co., Ltd., priority 1999, dated 2005)
